The results in this text go back to US9586925B2 (priority 2013, dated 2017).

The target of assay [1] is human recombinant butyrylcholinesterase (Homo sapiens (Human), UniProt P06276). The experiment in a line: biochemical. It is filed as biochemical.
Assay [2] addresses Human recombinant acetylcholinesterase (Homo sapiens (Human), UniProt P22303). The experiment in a line: biochemical.
The subject of the next assay is Male Wistar rats. It is filed as in vivo. The conditions noted are these: rat.

Read-outs that look alike come from different tables or passages of the source.

human recombinant butyrylcholinesterase, sequence (P06276 29-602 limits assumed): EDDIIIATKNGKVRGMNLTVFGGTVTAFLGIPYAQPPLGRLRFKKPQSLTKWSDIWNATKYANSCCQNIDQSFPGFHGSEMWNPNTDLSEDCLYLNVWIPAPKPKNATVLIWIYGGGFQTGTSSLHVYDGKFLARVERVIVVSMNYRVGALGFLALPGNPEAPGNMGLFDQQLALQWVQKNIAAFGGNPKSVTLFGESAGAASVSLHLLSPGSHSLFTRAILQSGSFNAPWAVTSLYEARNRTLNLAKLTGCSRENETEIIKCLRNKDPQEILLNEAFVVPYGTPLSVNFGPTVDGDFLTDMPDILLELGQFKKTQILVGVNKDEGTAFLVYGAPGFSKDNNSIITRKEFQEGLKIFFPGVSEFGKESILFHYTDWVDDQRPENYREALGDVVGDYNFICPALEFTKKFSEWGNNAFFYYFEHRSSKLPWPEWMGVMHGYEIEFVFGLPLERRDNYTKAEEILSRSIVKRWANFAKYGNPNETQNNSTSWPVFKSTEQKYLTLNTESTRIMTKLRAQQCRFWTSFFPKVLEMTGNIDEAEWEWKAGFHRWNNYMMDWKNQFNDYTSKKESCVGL
Human recombinant acetylcholinesterase, sequence (P22303 32-614 limits assumed): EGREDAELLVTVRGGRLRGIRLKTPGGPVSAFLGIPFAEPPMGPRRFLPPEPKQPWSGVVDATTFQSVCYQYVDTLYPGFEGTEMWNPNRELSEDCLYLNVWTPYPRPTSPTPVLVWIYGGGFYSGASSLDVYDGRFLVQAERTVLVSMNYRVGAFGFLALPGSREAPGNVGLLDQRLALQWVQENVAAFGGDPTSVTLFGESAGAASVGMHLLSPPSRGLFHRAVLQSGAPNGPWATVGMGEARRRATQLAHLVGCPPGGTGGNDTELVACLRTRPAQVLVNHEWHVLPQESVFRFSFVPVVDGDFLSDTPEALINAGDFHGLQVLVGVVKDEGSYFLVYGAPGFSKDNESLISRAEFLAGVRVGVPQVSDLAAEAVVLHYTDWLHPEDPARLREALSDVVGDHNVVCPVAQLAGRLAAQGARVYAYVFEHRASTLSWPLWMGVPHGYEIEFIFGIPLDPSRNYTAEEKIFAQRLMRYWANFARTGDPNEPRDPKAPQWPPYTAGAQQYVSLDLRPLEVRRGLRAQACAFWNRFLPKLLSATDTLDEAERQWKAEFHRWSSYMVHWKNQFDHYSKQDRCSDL

One may read the IC50 as the concentration at which inhibition is half-maximal. Take `COc1cc(C(C)N(C)C)c2c(c1)oc(=O)c1ccccc12` (racemic) [FAR-01-1, (±)-1-(1-(dimethylamino)ethyl)-3-methoxy-6H-benzo[c]chromen-6-one]: in assay [1], the IC50 is 24.7 µM.

Turning to `CCN(C)C(=O)Oc1cc(C(C)N(C)C)c2c(c1)oc(=O)c1ccccc12` (racemic) [FAR-01-1CA, (±)-1-(1-(dimethylamino)ethyl)-6-oxo-6H-benzo[c]chromen-3-yl ethyl(methyl)carbamate], the IC50 in assay [2] is over 40 µM. For the same compound, in assay [1], the “BCHE inhibitory potential in comparison to the current drugs (galantamine, rivastigmine, donepezil)” value (from here on “BCHE inhibitory potential in comparison”) is on record as “at least comparable and/or better inhibitory potential”; the IC50 is 8.5 µM; the “selectivity BCHE versus ACHE” value was “possess selectivity to inhibit the BCHE”.

In the case of `CC(c1cc(O)cc2oc(=O)c3ccccc3c12)N(C)C` (racemic) [FAR-01-1OH, (±)-1-(1-(dimethylamino)ethyl)-3-hydroxy-6H-benzo[c]chromen-6-one], the IC50 in assay [2] was 33.1 µM; in assay [1], over 40 µM.

With `COc1cc(C(C)N(C)C)cc2oc(=O)c3ccccc3c12` (racemic) [FAR-01-2, (±)-3-(1-(dimethylamino)ethyl)-1-methoxy-6H-benzo[c]chromen-6-one], the results for the IC50 in assay [2] and in assay [1] were 2.8 µM and 21.1 µM, respectively. The “Reverse (%) (percentage antagonism of scopolamine-induced latency deficit)” value with Male Wistar rats (in vivo) was found to be 71%.

On to `CCN(C)C(=O)Oc1cc(C(C)N(C)C)cc2oc(=O)c3ccccc3c12` (racemic) [FAR-01-2CA, (±)-3-(1-(dimethylamino)ethyl)-6-oxo-6H-benzo[c]chromen-1-yl ethyl(methyl)carbamate], for which, in assay [1], the “BCHE inhibitory potential in comparison” value is reported as “at least comparable and/or better inhibitory potential” and the IC50 came to 12.7 µM. The “Reverse (%) (percentage antagonism of scopolamine-induced latency deficit)” value in the assay on Male Wistar rats (compound 1 mg/kg oral, scopolamine 1 mg/kg i.p., latency measured for 5 minutes) came out at 53%.

On to `CC(c1cc(O)c2c(c1)oc(=O)c1ccccc12)N(C)C` (racemic) [FAR-01-2OH, (±)-3-(1-(dimethylamino)ethyl)-1-hydroxy-6H-benzo[c]chromen-6-one], for which the 50% inhibitory concentration (IC50) in assay [2] came to 18.9 µM. Moreover, in assay [1], the “BCHE inhibitory potential in comparison” value is given as “at least comparable and/or better inhibitory potential” and the IC50 worked out at 4.2 µM. Moreover, in the assay with Male Wistar rats (in vivo), the “Reverse (%) (percentage antagonism of scopolamine-induced latency deficit)” value was 49%.

Turning to `CC(c1ccc2c(c1)oc(=O)c1ccccc12)N(C)C` (racemic) [FAR-02-2RS, (±)-3-(1-(dimethylamino)ethyl)-6H-benzo[c]chromen-6-one], the half-inhibitory concentration (IC50) came out at 10.9 µM in assay [2] and 17.9 µM in assay [1]. The “Reverse (%) (percentage antagonism of scopolamine-induced latency deficit)” value in the assay with Male Wistar rats (in vivo) turned out to be 70%.

For `COc1cc2c(cc1OC)C(=O)C(CC1CCN(Cc3ccccc3)CC1)C2` (stereo not shown) [Donepezil, reference compound], the “Reverse (%) (percentage antagonism of scopolamine-induced latency deficit)” value in the assay on Male Wistar rats (in vivo) turned out to be 52%.

Take `C[C@@H](c1ccc2c(c1)oc(=O)c1ccccc12)N(C)C` [FAR-02-2S, (S)-3-(1-(dimethylamino)ethyl)-6H-benzo[c]chromen-6-one]: the IC50 was 7.9 µM in assay [2] (read-out: ACHE Inhibitory Activity IC50) and 16.2 µM in assay [1] (read-out: BCHE Inhibitory Activity IC50). In addition, the “Reverse (%) (percentage antagonism of scopolamine-induced latency deficit)” value with Male Wistar rats (in vivo) stood at 71%.

Turning to `CCN(C)C(=O)Oc1cccc([C@H](C)N(C)C)c1` [Rivastigmine, reference compound], the “Reverse (%) (percentage antagonism of scopolamine-induced latency deficit)” value in the assay with Male Wistar rats (in vivo) was determined as 85%.
